Legend:
[1] = molecular target: human thrombin (Homo sapiens, UniProt P00734); test: Determination of the inhibition constants (Ki) for thrombin; type: biochemical; conditions: human thrombin 100 pM, substrate S2238, pH 7.8, 37 degrees C., 60 min preincubation
Description: (§1) The inhibitors according to the invention have been tested according to various criteria to assess their efficacy, these preferably being the determination of the Ki value, of the IC50 value and of the partial thrombo-plastin time (PTT) in vivo and in vitro. To test the specificity, the IC50 values and Ki values with respect to various serine proteases, especially thrombin and trypsin, were measured. The stability of the substances according to the invention was determined by incubating a sample of the substance with a pure enzyme, preferably trypsin, chymotrypsin or papain, and with liver or intestinal homogenates, taking samples from the solutions at intervals of time, and preferably measuring by HPLC.
The inhibition constants (Ki) for the substances were determined by known enzyme kinetic methods. The human thrombin employed was determined to be 87% pure by means of active site titration. […] The inhibitor and enzyme were preincubated for 60 minutes, and the reaction was started by addition of the chromogenic substrate S2238. The kinetics were analyzed using the mathematical algorithm for tight binding, which with the aid of non-linear regression yielded Ki values (table) and the type of inhibition.

[2] = molecular target: T1, trypsin (Bos taurus, UniProt P00760); test: Ki with respect to trypsin (specificity of the inhibitors); type: biochemical
T1 sequence (P00760 24-246): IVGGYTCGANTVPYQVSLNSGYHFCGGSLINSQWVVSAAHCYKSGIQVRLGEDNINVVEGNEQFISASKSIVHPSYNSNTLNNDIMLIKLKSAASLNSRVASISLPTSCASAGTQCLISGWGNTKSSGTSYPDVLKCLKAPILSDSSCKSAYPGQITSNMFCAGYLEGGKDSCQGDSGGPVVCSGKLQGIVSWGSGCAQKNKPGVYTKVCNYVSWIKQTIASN
Description: as §1
The specificity of the inhibitors was determined with thrombin and trypsin. The specificity is defined as the ratio of the Ki values for trypsin and thrombin (table).

[3] = Determination of the subcutaneous absorption of substances (2) and (5), rabbits; type: in vivo; conditions: 2 mg/kg
Description: The substances were administered to rabbits subcutaneously in a dosage of 2 mg/kg. The maximum plasma concentration of (5) was reached after 5 minutes. The maximum plasma concentration of (2) was reached after 80 minutes.

[4] = Determination of the elimination half-lives t1/2 β, intravenous, rats; type: in vivo; conditions: rat, i.v., 5 mg/kg, plasma, calculated, second phase
Description: Determination of the Elimination Half-lives t1/2 β The thrombin inhibitors (2)-(5) in the table were administered intravenously to rats (5 in each group) at a dosage of 5 mg/kg. Blood samples were taken, and the time-dependent concentrations of thrombin inhibitors in the plasma were determined. Elimination takes place in two phases. The calculated elimination half-lives t1/2 β are compiled in it.

`COc1cc(C)c(S(=O)(=O)N[C@@H](CC(=O)O)C(=O)N[C@H](Cc2ccc(C(=N)N)cc2)C(=O)N2CCCCC2)c(C)c1C` [(5)] showed a Ki [1] of 2.5 nM, a Ki [2] of 312 nM and a Tmax ([3]; rabbit, plasma, sc, read-out: time to maximum plasma concentration (converted)) of 5 min. For the same compound, the “duration of effective plasma level” value ([3]; s.c.) was 3 h and the half-life [4] was 19 min.

Reference: patent publication US5571844A, “Amidinophenylalanine derivatives, a process for their preparation, their use and compositions containing these as anticoagulants” (Behringwerke Aktiengesellschaft, priority 1993, dated 1996)
